# Source: PubChem BioAssay (NCI)
# Values joined by “and” are separate entries in the source; they are usually repeats but may differ in a detail not shown here. Identical values can stand only once.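 Assay format: 96-well plates, 48-hour exposure. The concentration for 50% growth inhibition is given as GI50. Definition used: TGI = concentration required for complete inhibition of growth.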
# Test system: LOX IMVI melanoma
# Test: NCI tumour cell line growth inhibition, 48 h
Compound,TGI,GI50
O=C1/C(=C/c2ccc(O)c(O)c2)CCC/C1=C\c1ccc(O)c(O)c1,7.68 µM,–
COC(=O)/C=C1\S/C(=N\NC(=O)c2cc3ccc2/C=C\c2ccc(cc2)/C=C\3)N(c2ccccc2)C1=O,3.37 µM,1690 nM
COC([CH2][Hg][n]1cnc2c1c(=O)n(C)c(=O)n2C)CN1C(=O)c2ccccc2S1(=O)=O (stereo unspecified),> 100 µM,> 100000 nM
COc1ccc(CC2c3cc4c(cc3CCN2C)OCO4)c(C=O)c1OC (stereo unspecified),> 100 µM,–
C=C(C)C(OC)C(O)CC1(C)CC(O)CC(C)(C2CCC3OC(C4(C)CCC(Br)C(C)(C)O4)CCC3(C)O2)O1 (stereo unspecified),> 58.9 µM,26100 nM
Cc1cc(-c2nc(C(=O)Nc3cc4oc(N5CCOCC5)nc4nc3N3CC[C@@H](O)C3)co2)ccn1,> 100 µM,39900 nM
COc1cc2c(cc1OCCCCN1CCN(CC(=O)Nc3ccc(Cl)cc3C(=O)c3ccccc3Cl)CC1)N=CC1CCCN1C2=O (stereo unspecified),0.442 µM,203 nM
Cc1ccc(Cl)c2c(N=Nc3ccccc3[N+](=O)[O-])c(O)[nH]c12,> 100 µM,–
C=CCOc1ccc2c(C)cc(=O)oc2c1C,> 100 µM,–
Nc1c(C(=O)c2cccc(CCS(N)(=O)=O)c2)cnn1-c1ccc(F)cc1,> 25 µM,> 25000 nM
OCc1cc2ccccc2c2c3c(ccc12)OCO3,118 µM,35700 nM
C[C@@H](Oc1cc(-n2cnc3ccc(CN4CCN(C)CC4)cc32)sc1C(N)=O)c1ccccc1C(F)(F)F,5.5 µM and > 10 µM,< 18 nM and 23.1 nM
CCOC1Oc2ccccc2C(=O)/C1=C/Nc1ccc(C(C)=O)cc1 (stereo unspecified),58.5 µM,18900 nM
CC(C)=CCC\C(C)=C/C=C/C(C)=C\C=C\C(C)=C/C=C/C=C(C)\C=C\C=C(C)/C=C/C=C(/C)CCC=C(C)C,> 100 µM,–
CCN(CC)N=Nc1c(C(N)=O)n[nH]c1C,> 100 µM,–
O=C1NC(=NCCc2cccc(F)c2)S/C1=C\c1ccc2ncccc2c1,> 25 µM,1750 nM
CCOC(=O)Cn1c(C(F)(F)F)nc2nc(Cl)c(Cl)nc21,> 100 µM,–
COC1/C=C/OC2(C)Oc3c(C)c(O)c4c(O)c(c(/C=N/Nc5ccc([N+](=O)[O-])cc5[N+](=O)[O-])c(O)c4c3C2=O)NC(=O)C(C)=C/C=C/C(C)C(O)C(C)C(O)C(C)C(OC(C)=O)C1C (stereo unspecified),2.32 µM,1030 nM

# Test system: PC-3 prostate
# Test: NCI tumour cell line growth inhibition, 48 h
Compound,GI50,TGI
CN(C)c1ccc(/C=C\C2=[N+](C)c3ccccc3C2(C)C)cc1,0.195 µM,–
Nc1nc(-n2c(-c3ccccc3)nc3c(Br)cc(Br)cc3c2=O)nnc1-c1cccc(Cl)c1Cl,26.6 µM,> 100 µM
C[N+](C)(C)CC(=O)N/N=C(/CC(=O)CC(C1=C(O)c2ccccc2OC1)c1ccccc1)C(=O)Nc1cccc(Cl)c1 (stereo unspecified),–,> 100 µM
O=C1/C(=C/c2ccc(O)c(O)c2)CCC/C1=C\c1ccc(O)c(O)c1,–,19 µM
COC(=O)/C=C1\S/C(=N\NC(=O)c2cc3ccc2/C=C\c2ccc(cc2)/C=C\3)N(c2ccccc2)C1=O,1.71 µM,3.63 µM
COC([CH2][Hg][n]1cnc2c1c(=O)n(C)c(=O)n2C)CN1C(=O)c2ccccc2S1(=O)=O (stereo unspecified),> 100 µM,> 100 µM
COc1ccc(CC2c3cc4c(cc3CCN2C)OCO4)c(C=O)c1OC (stereo unspecified),–,> 100 µM
C=C(C)C(OC)C(O)CC1(C)CC(O)CC(C)(C2CCC3OC(C4(C)CCC(Br)C(C)(C)O4)CCC3(C)O2)O1 (stereo unspecified),15.4 µM,32.4 µM
Cc1cc(-c2nc(C(=O)Nc3cc4oc(N5CCOCC5)nc4nc3N3CC[C@@H](O)C3)co2)ccn1,26.9 µM,> 100 µM
COc1cc2c(cc1OCCCCN1CCN(CC(=O)Nc3ccc(Cl)cc3C(=O)c3ccccc3Cl)CC1)N=CC1CCCN1C2=O (stereo unspecified),0.238 µM,0.547 µM
Cc1ccc(Cl)c2c(N=Nc3ccccc3[N+](=O)[O-])c(O)[nH]c12,–,> 100 µM
C=CCOc1ccc2c(C)cc(=O)oc2c1C,–,> 100 µM
Nc1c(C(=O)c2cccc(CCS(N)(=O)=O)c2)cnn1-c1ccc(F)cc1,> 25 µM,> 25 µM
OCc1cc2ccccc2c2c3c(ccc12)OCO3,25.4 µM,140 µM
C[C@@H](Oc1cc(-n2cnc3ccc(CN4CCN(C)CC4)cc32)sc1C(N)=O)c1ccccc1C(F)(F)F,< 0.0192 µM and 0.0293 µM,15.5 µM and > 10 µM
CCOC1Oc2ccccc2C(=O)/C1=C/Nc1ccc(C(C)=O)cc1 (stereo unspecified),25.4 µM,93.3 µM
CCN1CCN(Cc2ccc(NC(=O)c3cccc(C#Cc4cccc5[nH]nc(N)c45)c3)cc2C(F)(F)F)CC1,1.36 µM,3.13 µM
CC(C)=CCC\C(C)=C/C=C/C(C)=C\C=C\C(C)=C/C=C/C=C(C)\C=C\C=C(C)/C=C/C=C(/C)CCC=C(C)C,–,> 100 µM
CCN(CC)N=Nc1c(C(N)=O)n[nH]c1C,–,> 100 µM
O=C1NC(=NCCc2cccc(F)c2)S/C1=C\c1ccc2ncccc2c1,> 25 µM,> 25 µM
CCOC(=O)Cn1c(C(F)(F)F)nc2nc(Cl)c(Cl)nc21,–,> 100 µM
COC1/C=C/OC2(C)Oc3c(C)c(O)c4c(O)c(c(/C=N/Nc5ccc([N+](=O)[O-])cc5[N+](=O)[O-])c(O)c4c3C2=O)NC(=O)C(C)=C/C=C/C(C)C(O)C(C)C(O)C(C)C(OC(C)=O)C1C (stereo unspecified),1.34 µM,3.92 µM

# Test system: SK-MEL-28 melanoma
# Test: NCI tumour cell line growth inhibition, 48 h
Compound,GI50 [µM],TGI [µM]
CN(C)c1ccc(/C=C\C2=[N+](C)c3ccccc3C2(C)C)cc1,0.51,21.5
Nc1nc(-n2c(-c3ccccc3)nc3c(Br)cc(Br)cc3c2=O)nnc1-c1cccc(Cl)c1Cl,> 100,> 100
C[N+](C)(C)CC(=O)N/N=C(/CC(=O)CC(C1=C(O)c2ccccc2OC1)c1ccccc1)C(=O)Nc1cccc(Cl)c1 (stereo unspecified),–,> 100
O=C1/C(=C/c2ccc(O)c(O)c2)CCC/C1=C\c1ccc(O)c(O)c1,–,11.8
COC(=O)/C=C1\S/C(=N\NC(=O)c2cc3ccc2/C=C\c2ccc(cc2)/C=C\3)N(c2ccccc2)C1=O,2.97,9.87
COC([CH2][Hg][n]1cnc2c1c(=O)n(C)c(=O)n2C)CN1C(=O)c2ccccc2S1(=O)=O (stereo unspecified),> 100,> 100
COc1ccc(CC2c3cc4c(cc3CCN2C)OCO4)c(C=O)c1OC (stereo unspecified),–,> 100
C=C(C)C(OC)C(O)CC1(C)CC(O)CC(C)(C2CCC3OC(C4(C)CCC(Br)C(C)(C)O4)CCC3(C)O2)O1 (stereo unspecified),23.6,50
Cc1cc(-c2nc(C(=O)Nc3cc4oc(N5CCOCC5)nc4nc3N3CC[C@@H](O)C3)co2)ccn1,56.2,> 100
COc1cc2c(cc1OCCCCN1CCN(CC(=O)Nc3ccc(Cl)cc3C(=O)c3ccccc3Cl)CC1)N=CC1CCCN1C2=O (stereo unspecified),0.229,0.453
